From ChEMBL document CHEMBL5236627, “Synthesis and biological activity evaluation of novel 3,5,7-trisubstituted pyrazolo[1,5-a]pyrimidines” (2023)
Active and inactive are the calls of the source. The rule behind the calls is not given here.

Key:
MV4-11 [1] = assay: Anticancer activity against human MV4-11 cells expressing FLT3-ITD mutant; assay type: functional, cell-based
MOLM-13 = assay: Anticancer activity against human MOLM-13 cells; assay type: functional, cell-based
MV4-11 [2] = assay: Induction of cell cycle arrest in human MV4-11 cells assessed as accumulation of G1 phase cells at 0.001 uM by PI staining based flow cytometric analysis (reference value: 60.77 % ); assay type: functional
MV4-11 [3] = assay: Induction of cell cycle arrest in human MV4-11 cells assessed as G2 phase cells at 0.001 uM by PI staining based flow cytometric analysis (reference value: 12.61 % ); assay type: functional
MV4-11 [4] = assay: Induction of cell cycle arrest in human MV4-11 cells assessed as S phase cells at 0.001 uM by PI staining based flow cytometric analysis (reference value: 26.62 % ); assay type: functional
MV4-11 [5] = assay: Induction of cell cycle arrest in human MV4-11 cells assessed as accumulation of G1 phase cells at 0.01 uM by PI staining based flow cytometric analysis (reference value: 60.77 % ); assay type: functional
MV4-11 [6] = assay: Induction of cell cycle arrest in human MV4-11 cells assessed as G2 phase cells at 0.01 uM by PI staining based flow cytometric analysis (reference value: 12.61 % ); assay type: functional
MV4-11 [7] = assay: Induction of cell cycle arrest in human MV4-11 cells assessed as S phase cells at 0.01 uM by PI staining based flow cytometric analysis (reference value: 26.62 % ); assay type: functional
MV4-11 [8] = assay: Induction of cell cycle arrest in human MV4-11 cells assessed as accumulation of G1 phase cells at 0.1 uM by PI staining based flow cytometric analysis (reference value: 60.77 % ); assay type: functional
MV4-11 [9] = assay: Induction of cell cycle arrest in human MV4-11 cells assessed as G2 phase cells at 0.1 uM by PI staining based flow cytometric analysis (reference value: 12.61 % ); assay type: functional
MV4-11 [10] = assay: Induction of cell cycle arrest in human MV4-11 cells assessed as S phase cells at 0.1 uM by PI staining based flow cytometric analysis (reference value: 26.62 % ); assay type: functional
MV4-11 [11] = assay: Induction of cell cycle arrest in human MV4-11 cells assessed as accumulation of G1 phase cells at 1 uM by PI staining based flow cytometric analysis (reference value: 60.77 % ); assay type: functional
MV4-11 [12] = assay: Induction of cell cycle arrest in human MV4-11 cells assessed as G2 phase cells at 1 uM by PI staining based flow cytometric analysis (reference value: 12.61 % ); assay type: functional
MV4-11 [13] = assay: Induction of cell cycle arrest in human MV4-11 cells assessed as S phase cells at 1 uM by PI staining based flow cytometric analysis (reference value: 26.62 % ); assay type: functional
MV4-11 [14] = assay: Induction of cell cycle arrest in human MV4-11 cells assessed as accumulation of G1 phase cells at 10 uM by PI staining based flow cytometric analysis (reference value: 60.77 % ); assay type: functional
MV4-11 [15] = assay: Induction of cell cycle arrest in human MV4-11 cells assessed as G2 phase cells at 10 uM by PI staining based flow cytometric analysis (reference value: 12.61 % ); assay type: functional
MV4-11 [16] = assay: Induction of cell cycle arrest in human MV4-11 cells assessed as S phase cells at 10 uM by PI staining based flow cytometric analysis (reference value: 26.62 % ); assay type: functional
CCRF-CEM = assay: Anticancer activity against FLT3-independent human CCRF-CEM cells; assay type: functional, cell-based
THP-1 = assay: Anticancer activity against human THP-1 cells; assay type: functional, cell-based
K562 = assay: Anticancer activity against human K562 cells; assay type: functional, cell-based
MCF7 = assay: Anticancer activity against human MCF7 cells; assay type: functional, cell-based
[17] = molecular target: Cyclin-dependent kinase 2 (Homo sapiens) (UniProt P24941); assay: Inhibition of CDK2 (unknown origin)
[18] = molecular target: Cyclin-dependent kinase 9 (Homo sapiens) (UniProt P50750); assay: Inhibition of CDK9 (unknown origin)
Chain of Cyclin-dependent kinase 9 (Homo sapiens) (P50750 whole entry): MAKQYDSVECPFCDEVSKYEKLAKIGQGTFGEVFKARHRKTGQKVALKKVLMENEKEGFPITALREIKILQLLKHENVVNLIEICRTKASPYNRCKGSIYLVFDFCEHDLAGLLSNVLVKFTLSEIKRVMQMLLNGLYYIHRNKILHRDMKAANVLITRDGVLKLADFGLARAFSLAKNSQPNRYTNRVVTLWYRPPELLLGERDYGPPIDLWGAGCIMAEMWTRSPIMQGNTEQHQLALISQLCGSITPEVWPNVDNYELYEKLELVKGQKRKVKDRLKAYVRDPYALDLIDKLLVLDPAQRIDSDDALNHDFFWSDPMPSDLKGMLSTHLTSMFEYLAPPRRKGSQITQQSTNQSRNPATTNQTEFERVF

[19] = molecular target: Receptor-type tyrosine-protein kinase FLT3 (Homo sapiens) (UniProt P36888); assay: Inhibition of FLT3 autophosphorylation at tyrosine 589/591 residues in human MV4-11 cells at 0.01 uM incubated for 1 hrs by immunoblotting analysis; assay type: cell-based
Chain of Receptor-type tyrosine-protein kinase FLT3 (Homo sapiens) (P36888 whole entry): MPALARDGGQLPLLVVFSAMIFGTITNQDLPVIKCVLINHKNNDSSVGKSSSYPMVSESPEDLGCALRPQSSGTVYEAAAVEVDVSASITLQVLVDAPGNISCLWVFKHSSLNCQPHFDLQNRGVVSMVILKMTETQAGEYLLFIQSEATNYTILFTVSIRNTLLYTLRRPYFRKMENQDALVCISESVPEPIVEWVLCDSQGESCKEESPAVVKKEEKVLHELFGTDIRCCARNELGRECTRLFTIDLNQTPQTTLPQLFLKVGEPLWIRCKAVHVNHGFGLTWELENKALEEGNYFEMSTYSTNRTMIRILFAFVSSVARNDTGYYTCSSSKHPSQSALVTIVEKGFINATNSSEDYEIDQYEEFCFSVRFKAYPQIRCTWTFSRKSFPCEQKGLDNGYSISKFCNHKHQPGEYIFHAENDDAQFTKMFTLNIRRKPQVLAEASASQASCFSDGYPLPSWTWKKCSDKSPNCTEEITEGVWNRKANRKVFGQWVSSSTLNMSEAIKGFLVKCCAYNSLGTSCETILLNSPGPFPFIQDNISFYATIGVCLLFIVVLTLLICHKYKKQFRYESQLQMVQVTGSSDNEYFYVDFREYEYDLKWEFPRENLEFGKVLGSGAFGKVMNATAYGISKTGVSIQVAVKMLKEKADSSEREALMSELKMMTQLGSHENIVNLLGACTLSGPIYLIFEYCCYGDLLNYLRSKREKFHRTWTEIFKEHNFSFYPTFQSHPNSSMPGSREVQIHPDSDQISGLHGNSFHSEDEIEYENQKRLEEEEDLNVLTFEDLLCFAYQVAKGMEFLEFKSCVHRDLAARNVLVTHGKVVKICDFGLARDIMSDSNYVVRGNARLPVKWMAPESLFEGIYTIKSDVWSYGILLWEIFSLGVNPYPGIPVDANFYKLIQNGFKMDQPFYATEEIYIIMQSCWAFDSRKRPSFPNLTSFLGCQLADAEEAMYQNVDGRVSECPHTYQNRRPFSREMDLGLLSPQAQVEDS

[20] = molecular target: T1, Signal transducer and activator of transcription 5A (Homo sapiens) (UniProt P42229); assay: Inhibition of STAT5 phosphorylation in human MV4-11 cells at 0.01 uM incubated for 1 hrs by immunoblotting analysis; assay type: cell-based
T1 sequence (whole entry): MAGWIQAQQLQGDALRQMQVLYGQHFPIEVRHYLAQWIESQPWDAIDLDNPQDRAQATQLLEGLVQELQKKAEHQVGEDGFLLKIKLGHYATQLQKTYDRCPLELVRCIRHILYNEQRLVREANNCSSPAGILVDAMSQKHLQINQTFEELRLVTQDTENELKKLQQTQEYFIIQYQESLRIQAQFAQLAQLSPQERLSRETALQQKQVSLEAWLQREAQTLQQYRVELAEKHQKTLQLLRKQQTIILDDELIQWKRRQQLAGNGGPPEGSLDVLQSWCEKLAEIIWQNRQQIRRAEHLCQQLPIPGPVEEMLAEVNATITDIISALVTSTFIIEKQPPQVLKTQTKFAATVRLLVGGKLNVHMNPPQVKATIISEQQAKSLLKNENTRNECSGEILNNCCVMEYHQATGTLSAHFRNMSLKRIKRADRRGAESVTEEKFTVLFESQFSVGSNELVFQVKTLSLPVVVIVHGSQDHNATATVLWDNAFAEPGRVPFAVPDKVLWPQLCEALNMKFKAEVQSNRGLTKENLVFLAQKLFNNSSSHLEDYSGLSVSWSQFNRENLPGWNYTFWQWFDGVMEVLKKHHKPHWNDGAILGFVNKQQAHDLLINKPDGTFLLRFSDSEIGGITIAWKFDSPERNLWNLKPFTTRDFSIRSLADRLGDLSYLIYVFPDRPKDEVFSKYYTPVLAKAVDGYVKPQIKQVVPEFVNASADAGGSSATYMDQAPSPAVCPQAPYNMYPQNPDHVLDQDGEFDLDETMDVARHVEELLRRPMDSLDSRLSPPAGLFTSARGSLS

[21] = molecular target: Mitogen-activated protein kinase; ERK1/ERK2 (Homo sapiens) (UniProt P27361+P28482); assay: Inhibition of ERK1/2 phosphorylation at Thr202/Tyr204 residues in human MV4-11 cells at 0.1 uM incubated for 1 hrs by immunoblotting analysis; assay type: cell-based
Chain of Mitogen-activated protein kinase; ERK1/ERK2 (Homo sapiens) (P27361 whole entry, looked up): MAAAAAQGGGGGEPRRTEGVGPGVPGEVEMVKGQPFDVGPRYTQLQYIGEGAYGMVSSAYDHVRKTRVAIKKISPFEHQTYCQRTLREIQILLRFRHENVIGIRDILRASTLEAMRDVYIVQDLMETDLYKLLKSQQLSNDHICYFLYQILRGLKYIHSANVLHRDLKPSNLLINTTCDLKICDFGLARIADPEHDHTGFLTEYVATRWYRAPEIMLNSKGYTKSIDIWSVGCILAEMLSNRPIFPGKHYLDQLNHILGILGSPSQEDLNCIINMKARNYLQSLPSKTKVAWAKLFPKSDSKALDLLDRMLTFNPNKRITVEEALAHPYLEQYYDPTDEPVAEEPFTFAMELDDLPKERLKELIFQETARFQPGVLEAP
Chain of Mitogen-activated protein kinase; ERK1/ERK2 (Homo sapiens) (P28482 whole entry, looked up): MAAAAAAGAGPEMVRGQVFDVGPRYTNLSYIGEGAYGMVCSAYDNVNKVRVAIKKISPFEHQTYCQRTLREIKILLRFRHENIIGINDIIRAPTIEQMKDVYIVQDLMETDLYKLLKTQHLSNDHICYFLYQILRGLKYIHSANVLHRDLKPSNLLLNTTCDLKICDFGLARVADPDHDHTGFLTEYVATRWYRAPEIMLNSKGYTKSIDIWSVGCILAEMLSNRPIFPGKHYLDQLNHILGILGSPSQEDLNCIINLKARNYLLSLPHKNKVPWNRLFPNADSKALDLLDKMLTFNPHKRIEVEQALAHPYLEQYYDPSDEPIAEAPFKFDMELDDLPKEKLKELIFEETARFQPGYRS

**Q.** With `N[C@H]1CC[C@H](Nc2cc(NCc3ccc(Br)cc3)n3ncc(C4CCCC4)c3n2)CC1` as the molecule, how does the Activity (MV4-11 [1]) read?
**A.** Active

**Q.** And the Activity (MOLM-13)?
**A.** Active

**Q.** For `N[C@H]1CC[C@H](Nc2cc(Nc3ccc(CN4CCOCC4)cc3)n3ncc(C4CCCC4)c3n2)CC1`, which Activity (MV4-11 [2]) is on record?
**A.** 59.36%

**Q.** And the Activity (MV4-11 [3])?
**A.** 14.62%

**Q.** And the Activity (MV4-11 [4])?
**A.** 26.03%

**Q.** And the Activity (MV4-11 [5])?
**A.** 61.96%

**Q.** And the Activity (MV4-11 [6])?
**A.** 12.79%

**Q.** What about the Activity (MV4-11 [7]) of the same molecule?
**A.** 25.25%

**Q.** What about the Activity (MV4-11 [8]) of the same molecule?
**A.** 86.23%

**Q.** And the Activity (MV4-11 [9])?
**A.** 5.11%

**Q.** And the Activity (MV4-11 [10])?
**A.** 8.66%

**Q.** What about the Activity (MV4-11 [11]) of the same molecule?
**A.** 76.39%

**Q.** And the Activity (MV4-11 [12])?
**A.** 7.13%

**Q.** And the Activity (MV4-11 [13])?
**A.** 16.48%

**Q.** And the Activity (MV4-11 [14])?
**A.** 75.69%

**Q.** What about the Activity (MV4-11 [15]) of the same molecule?
**A.** 5.93%

**Q.** What about the Activity (MV4-11 [16]) of the same molecule?
**A.** 18.38%

**Q.** What about the Activity (MV4-11 [1]) of the same molecule?
**A.** Active

**Q.** What about the Activity (MOLM-13) of the same molecule?
**A.** Active

**Q.** And the Activity (CCRF-CEM)?
**A.** Active

**Q.** What about the Activity (THP-1) of the same molecule?
**A.** Active

**Q.** And the Activity (K562)?
**A.** Active

**Q.** What about the Activity (MCF7) of the same molecule?
**A.** Active

**Q.** And the inhibition [17]?
**A.** Active

**Q.** What about the inhibition [18] of the same molecule?
**A.** Active

**Q.** And the inhibition [19]?
**A.** Active

**Q.** What about the inhibition [20] of the same molecule?
**A.** Active

**Q.** And the inhibition [21]?
**A.** Active

**Q.** For `NCCCCNc1cc(Nc2ccc(CN3CCOCC3)cc2)n2ncc(C3CCCC3)c2n1`, which Activity (MV4-11 [1]) is on record?
**A.** Active

**Q.** And the Activity (MOLM-13)?
**A.** Active

**Q.** Which results are given for `N[C@H]1CC[C@H](Nc2cc(Nc3cccc(CN4CCOCC4)c3)n3ncc(C4CCCC4)c3n2)CC1`?
**A.** Activity (MV4-11 [1]): Active; Activity (MOLM-13): Active

**Q.** Which Activity (MV4-11 [1]) does the source give for `NCCCCNc1cc(NCc2cccc(CN3CCOCC3)c2)n2ncc(C3CCCC3)c2n1` here?
**A.** Active

**Q.** What about the Activity (MOLM-13) of the same molecule?
**A.** Active

**Q.** With `CC[C@@H](CO)Nc1cc(Nc2ccc(-c3cccs3)nc2)n2ncc(C3CCCC3)c2n1` as the molecule, how does the Activity (MV4-11 [1]) read?
**A.** Active

**Q.** What about the Activity (MOLM-13) of the same molecule?
**A.** Active

**Q.** With `N[C@H]1CC[C@H](Nc2cc(Nc3ccc(N4CC5(COC5)C4)cc3)n3ncc(C4CCCC4)c3n2)CC1` as the molecule, how does the Activity (MV4-11 [1]) read?
**A.** Active

**Q.** And the Activity (MOLM-13)?
**A.** Active

**Q.** Which Activity (MV4-11 [1]) does the source give for `N[C@H]1CC[C@H](Nc2cc(Nc3ccc(-c4cccs4)nc3)n3ncc(C4CCCC4)c3n2)CC1` here?
**A.** Active

**Q.** What about the Activity (MOLM-13) of the same molecule?
**A.** Active

**Q.** What about the Activity (CCRF-CEM) of the same molecule?
**A.** Active

**Q.** And the Activity (THP-1)?
**A.** Active

**Q.** And the Activity (K562)?
**A.** Active

**Q.** And the Activity (MCF7)?
**A.** Active

**Q.** And the inhibition [17]?
**A.** Active

**Q.** What about the inhibition [18] of the same molecule?
**A.** Active
